According to patent US20140213502A1, “CHEMICAL MODIFICATION OF APOLIPOPROTEIN MIMETIC PEPTIDES FOR THE PRODUCTION OF THERAPEUTIC AGENTS” (United States Department of Health and Human Services, priority 2011, published 2014):
Like-named read-outs stand apart in the source and are kept apart here. Bridge positions count the residues as written; N and C are the ends. Square brackets hold non-standard residues; d marks the D form. Ends that are not written are not given here. Peptide text beside a SMILES is read from it. * marks the point of attachment. Myristoyl = CCCCCCCCCCCCCC(=O)*; R8 = C=CCCCCCC[C@@](C)(N)C(=O)O; S5 = C=CCCC[C@](C)(N)C(=O)O

Tests used:
[1] = Helicity by circular dichroism (CD) spectroscopy; format: physicochemical; settings: for helical (helicity by CD spectroscopy): 24° C., aqueous buffer (sodium phosphate pH 7.4), peptide 0.1 mg/mL; for Helicity at 90° C.: heat denaturation, CD spectroscopy
Experimental: FIG. 1 depicts the primary sequence and information regarding the biophysical characterization of illustrative peptides discussed herein. […] X1=(R)-a-(7′-octanyl)Ala; X2=(S)-a-(4′ pentenyl)Ala. […] (dotted line) A10, (solid line) S1A10, (dashed line) S2A10.
FIG. 5 depicts helicity of peptides as measured by CD-spectroscopy at 24° C.: (dotted line) 5A, (dashed line) acyl-5A.
The helical nature of the peptides was determined by circular dichroism spectroscopy. Peptides (0.1 mg/mL) in sodium phosphate buffer (pH 7.4) were loaded into a quartz cuvette (d=0.2 cm path length) and CD spectra from 185 to 240 nm were recorded on a Jasco J715 spectropolarimeter at 24° C. Data were normalized by calculating the mean residue ellipticity (θ). Peptide thermostability was monitored at 220 nm by increasing temperature from 10° to 90° C.

pepsin = test: Susceptibility to proteolysis by pepsin, loss of intact peptide by MALDI-TOF MS; format: in vitro ADME; settings: for remaining at 24 h, 500 μg/ml: pepsin (isolated protease), pepsin 0.5 μg/ml, pH 2, 37° C., read-out: peptide remaining after digestion
Experimental: (§1) FIG. 2 depicts information relating to peptide susceptibility to proteolysis. Peptides […] and […] at a final concentration of 500 μg/ml were incubated for the indicated times with either pepsin (0.5 μg/ml) in 10% acetic acid (pH 2.0) buffer (Panel A) or with chymotrypsin (0.5 μg/ml) in 10 mM NH4HCO3 (pH 7.4) buffer (Panel B), and loss of intact peptide was monitored by MALDI-TOF MS. Results are expressed as normalized area under the curve measurements relative to three internal standards. […] Several potential pepsin and/or chymotrypsin cleavage sites are found within and outside the linker region of the peptides […] and […]. […] and […] (5 mg/ml) were diluted 10× with either 10% acetic acid (pH 2), containing pepsin (0.5 μg/ml final) or in 10 mM NH4HCO3 (pH 7), containing chymotrypsin (0.5 μg/ml final). After incubation at 37° C., aliquots at various time points were removed and dried on a MALDI Anchor Chip target at 45° C. MALDI standards (Bombesin, ACTH 1-17, ACTH 18-39, Somastatin 28, CHCA in 50% ACN, 0.1% TFA) and matrix were added sequentially and allowed to dry between additions. Samples were analyzed on a Bruker AutoFlex III (Bruker Daltonics) in positive ion reflectron mode. Relative protein concentrations were determined from areas under the curve, using the MALDI standards as calibrators.

chymotrypsin = test: Susceptibility to proteolysis by chymotrypsin, loss of intact peptide by MALDI-TOF MS; format: in vitro ADME; settings: for remaining at 24 h, 500 μg/ml: chymotrypsin (isolated protease), read-out: peptide remaining after digestion
Experimental: as §1

aortic atherosclerosis = test: Atherosclerosis progression in a mouse model, en face analysis of aorta; format: in vivo; settings: apoE^hypx SR-BI Ko mice, 200 ug/mL in drinking water, high fat (21%) diet 2 weeks
Experimental: FIG. 8 depicts the results of testing the peptide […] on atherosclerosis progression in a mouse model of atherosclerosis. To test the ability of the stapled peptide variant of the last helix of apoA-T containing the long linker, […], it was added to the drinking water (200 ug/mL) of apoE^hypx SR-BI Ko mice. The mice were fed a high fat (21%) diet for 2-weeks and examined for aortic atherosclerosis by en face analysis.

SR-BI receptor = molecular target: T1, SR-BI receptor (Homo sapiens, UniProt Q8WTV0); test: Cholesterol efflux, SR-BI transfected BHK cells; format: cell-based; settings: 18 h, no phospholipid reconstitution
T1 construct: expressed in transfected cells; host or cells: BHK cells
T1 sequence (Q8WTV0 1-552): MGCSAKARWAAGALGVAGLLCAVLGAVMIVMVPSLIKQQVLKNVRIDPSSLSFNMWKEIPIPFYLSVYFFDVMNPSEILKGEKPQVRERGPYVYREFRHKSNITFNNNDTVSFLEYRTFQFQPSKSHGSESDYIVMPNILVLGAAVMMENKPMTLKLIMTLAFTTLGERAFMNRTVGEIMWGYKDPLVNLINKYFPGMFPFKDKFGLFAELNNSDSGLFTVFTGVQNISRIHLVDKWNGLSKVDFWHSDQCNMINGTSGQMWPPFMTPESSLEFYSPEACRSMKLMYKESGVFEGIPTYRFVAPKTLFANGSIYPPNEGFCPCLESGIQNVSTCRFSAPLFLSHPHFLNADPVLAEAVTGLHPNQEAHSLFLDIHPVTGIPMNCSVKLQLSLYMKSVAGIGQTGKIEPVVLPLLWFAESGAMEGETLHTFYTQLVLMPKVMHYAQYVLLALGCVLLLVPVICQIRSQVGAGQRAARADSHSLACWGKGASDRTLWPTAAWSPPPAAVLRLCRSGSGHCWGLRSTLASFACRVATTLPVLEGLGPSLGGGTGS
Experimental: (§2) FIG. 4 depicts the results of testing the effect of the peptides on cholesterol efflux. Peptides A10, S1A10, S2A10, 5A at the indicated concentration were incubated with (Panel A) BHK control cells, (Panel B) ABC-A1 transfected BHK cells, (Panel C) ABC-G1 transfected BHK cells, and (Panel D) SR-B1 transfected BHK cells and monitored for cholesterol efflux. Percent of cholesterol efflux over 18 h is expressed as mean±SD of triplicate determinations.
(§3) The ability of the three peptides and the bi-helical 5A peptide to promote cholesterol efflux was tested on BHK cells stably transfected with human ABCA1, ABCG1 or the human SRBI receptor (FIGS. 5 and 6). Cholesterol efflux studies were performed, as described previously. Control BHK cells and BHK cells stably transfected with either human ABCA1, ABCG1 or SR-BI were radiolabeled with [^3H] cholesterol for 24 h, washed and then treated with the indicated concentration of peptides for 18 h. Percent efflux was calculated by subtracting the radioactive counts in blank medium (alpha-minimal essential media plus 10 μg/ml bovine serum albumin) from the radioactive counts in the presence of a peptide and then dividing the result by the sum of the radioactive counts in the medium plus the cell fraction.

ABCG1 transporter = molecular target: T2, ABCG1 transporter (Homo sapiens, UniProt P45844); test: Cholesterol efflux, ABCG1 transfected BHK cells; format: cell-based; settings: 18 h, no phospholipid reconstitution
T2 construct: expressed in transfected cells; host or cells: BHK cells
Experimental: as §2, §3

[2] = format: physicochemical
Experimental: FIG. 3 depicts Dimyristoyl phosphatidyl choline (DMPC) vesicle solubilization by the indicated peptides. Peptides A10, S1A10 and S2A10 at a final concentration of 33 μg/mL or phosphate buffer saline (PBS) was incubated with DMPC vehicles (200 μg/mL) and monitored for turbidity at 1 min. intervals.
A phospholipid vesicle solubilization assay was undertaken to assess the ability of the peptides to act like detergents. Dimyristoyl phosphatidyl choline (DMPC) vesicles were prepared by resuspension of dried DMPC with PBS and vortexing for 5 min. Changes in light scattering upon peptide addition were monitored at 24° C. every minute for 1 h at 660 nm, with shaking in a Perkin Elmer plate reader.

ABCA1 transporter = molecular target: T3, ABCA1 transporter (Homo sapiens, UniProt O95477); test: Cholesterol efflux, BHK cells stably transfected with human ABCA1; format: cell-based; settings: 18 h
T3 construct: expressed in transfected cells; host or cells: BHK cells
T3 sequence (O95477 whole entry): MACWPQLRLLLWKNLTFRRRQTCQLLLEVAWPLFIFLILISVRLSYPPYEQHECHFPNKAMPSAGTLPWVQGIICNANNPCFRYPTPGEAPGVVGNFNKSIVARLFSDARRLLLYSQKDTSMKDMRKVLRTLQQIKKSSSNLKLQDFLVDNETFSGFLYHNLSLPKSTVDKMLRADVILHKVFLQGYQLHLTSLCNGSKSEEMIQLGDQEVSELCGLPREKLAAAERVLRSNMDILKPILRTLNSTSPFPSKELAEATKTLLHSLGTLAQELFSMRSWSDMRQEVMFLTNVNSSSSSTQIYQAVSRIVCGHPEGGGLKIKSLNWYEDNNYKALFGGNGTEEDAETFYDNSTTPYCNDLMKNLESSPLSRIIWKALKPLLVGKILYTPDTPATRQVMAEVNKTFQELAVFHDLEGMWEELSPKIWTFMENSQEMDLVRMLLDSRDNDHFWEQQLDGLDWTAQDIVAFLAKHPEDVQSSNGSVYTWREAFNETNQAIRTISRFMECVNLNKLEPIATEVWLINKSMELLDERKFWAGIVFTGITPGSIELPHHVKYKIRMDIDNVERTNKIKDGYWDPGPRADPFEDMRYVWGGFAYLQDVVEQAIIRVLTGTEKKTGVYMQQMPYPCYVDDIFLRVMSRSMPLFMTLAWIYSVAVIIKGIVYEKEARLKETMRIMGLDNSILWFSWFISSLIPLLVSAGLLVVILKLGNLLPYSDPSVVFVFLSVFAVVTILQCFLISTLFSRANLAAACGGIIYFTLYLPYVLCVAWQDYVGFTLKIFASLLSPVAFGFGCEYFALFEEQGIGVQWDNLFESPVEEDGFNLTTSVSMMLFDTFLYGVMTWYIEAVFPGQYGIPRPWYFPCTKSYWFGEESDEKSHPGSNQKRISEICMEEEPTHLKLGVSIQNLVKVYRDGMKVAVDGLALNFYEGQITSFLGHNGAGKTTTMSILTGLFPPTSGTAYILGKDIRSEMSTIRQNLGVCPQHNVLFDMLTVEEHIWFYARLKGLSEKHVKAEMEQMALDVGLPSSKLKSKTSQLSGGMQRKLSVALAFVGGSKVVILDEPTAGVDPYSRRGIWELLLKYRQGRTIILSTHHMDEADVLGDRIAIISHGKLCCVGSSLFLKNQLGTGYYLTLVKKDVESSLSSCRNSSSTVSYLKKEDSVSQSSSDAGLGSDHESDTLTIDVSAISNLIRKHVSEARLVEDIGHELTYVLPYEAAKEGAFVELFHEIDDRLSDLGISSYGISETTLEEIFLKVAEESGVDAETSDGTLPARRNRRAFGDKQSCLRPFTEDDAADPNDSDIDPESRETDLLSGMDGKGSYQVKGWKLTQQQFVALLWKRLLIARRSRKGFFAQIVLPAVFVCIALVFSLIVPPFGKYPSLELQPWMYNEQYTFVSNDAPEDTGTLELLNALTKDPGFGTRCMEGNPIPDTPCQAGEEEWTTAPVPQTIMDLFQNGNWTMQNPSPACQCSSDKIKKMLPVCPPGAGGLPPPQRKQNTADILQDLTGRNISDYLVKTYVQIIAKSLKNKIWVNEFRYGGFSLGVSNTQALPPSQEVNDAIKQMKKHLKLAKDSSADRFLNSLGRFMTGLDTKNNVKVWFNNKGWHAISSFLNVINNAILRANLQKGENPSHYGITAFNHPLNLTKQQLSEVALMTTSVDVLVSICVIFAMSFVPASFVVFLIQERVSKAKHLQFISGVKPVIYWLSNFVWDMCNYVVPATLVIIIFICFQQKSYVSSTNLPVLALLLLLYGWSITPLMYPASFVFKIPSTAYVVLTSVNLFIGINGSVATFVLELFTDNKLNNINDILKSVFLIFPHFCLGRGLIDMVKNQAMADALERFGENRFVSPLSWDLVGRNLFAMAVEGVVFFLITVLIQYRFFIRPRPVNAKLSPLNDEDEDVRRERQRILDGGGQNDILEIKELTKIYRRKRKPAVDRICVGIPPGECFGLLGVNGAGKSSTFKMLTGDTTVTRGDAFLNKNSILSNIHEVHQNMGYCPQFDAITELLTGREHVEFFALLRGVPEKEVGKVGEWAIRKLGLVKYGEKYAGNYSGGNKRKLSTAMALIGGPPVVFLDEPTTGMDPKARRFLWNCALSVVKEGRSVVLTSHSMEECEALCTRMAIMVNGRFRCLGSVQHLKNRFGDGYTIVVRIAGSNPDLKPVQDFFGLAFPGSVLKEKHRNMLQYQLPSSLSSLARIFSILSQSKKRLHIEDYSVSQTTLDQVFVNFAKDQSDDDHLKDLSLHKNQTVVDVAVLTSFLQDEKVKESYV
Experimental: as §2, §3

[3] = cited from earlier work
[4] = Effect of acyl-5A on serum lipid profile of mice; format: in vivo; settings: CS7BL/6 mice, 30 mg/kg intravenously in saline, relative to baseline
Experimental: FIG. 7 depicts the results of testing acyl-5A on scrum lipid values in mice. Acyl-5A was injected intravenously in CS7BL/6 mice (n=4) at a dose of 30 mg/kg in saline, and serum was measured for total cholesterol (Panel A), cholesteryl esters (Panel B), and free cholesterol (Panel C) at the indicated, time points. Mean of results are expressed as % of baseline.
In FIG. 7, the results of testing the effect of acyl-5A on the serum lipid profile of mice are shown.

[5] = Oligomer formation in aqueous solution; format: physicochemical
[6] = chymotrypsin 0.5 μg/ml, 10 mM NH4HCO3 (pH 7), 37° C.

CC(=O)N[C@H](C(=O)N[C@@H](CC(C)C)C(=O)N[C@@H](CCC(=O)O)C(=O)N[C@@H](CO)C(=O)N[C@@H](Cc1ccccc1)C(=O)N[C@@H](CCCCN)C(=O)N[C@H](C(=O)N[C@@H](CO)C(=O)N[C@]1(C)CCCCCCC=CCCCCCC[C@](C)(C(=O)N[C@@H](CCC(=O)O)C(=O)N[C@@H](CCC(=O)O)C(=O)N[C@@H](Cc2ccc(O)cc2)C(=O)N[C@H](C(=O)N[C@@H](CCCCN)C(=O)N[C@@H](CCCCN)C(=O)N[C@@H](CC(C)C)C(=O)N[C@@H](CC(N)=O)C(=O)N[C@H](C(=O)N[C@@H](CCC(N)=O)C(N)=O)[C@@H](C)O)[C@@H](C)O)NC(=O)[C@H](C)NC(=O)[C@H](CO)NC(=O)[C@H](CC(C)C)NC1=O)C(C)C)C(C)C [S1A10] (Ac-VLESFKVS[R8]LSA[R8]EEYTKKLNTQ-NH2; staple 9-13; N-terminus and C-terminus assumed)
helical (helicity by CD spectroscopy) [1]: 62% | Helicity at 90° C. [1]: 25% | remaining at 24 h, 500 μg/ml (pepsin): 0.4% | remaining at 24 h, 500 μg/ml (chymotrypsin; [6]): 0.6%

CC(=O)N[C@H](C(=O)N[C@@H](CC(C)C)C(=O)N[C@@H](CCC(=O)O)C(=O)N[C@@H](CO)C(=O)N[C@@H](Cc1ccccc1)C(=O)N[C@@H](CCCCN)C(=O)N[C@H](C(=O)N[C@@H](CO)C(=O)N[C@@]1(C)CCCC=CCCCCCC[C@](C)(C(=O)N[C@H](C(=O)N[C@@H](CCCCN)C(=O)N[C@@H](CCCCN)C(=O)N[C@@H](CC(C)C)C(=O)N[C@@H](CC(N)=O)C(=O)N[C@H](C(=O)N[C@@H](CCC(N)=O)C(N)=O)[C@@H](C)O)[C@@H](C)O)NC(=O)[C@H](CCC(=O)O)NC(=O)[C@H](CCC(=O)O)NC(=O)[C@H](CC(C)C)NC(=O)[C@H](C)NC(=O)[C@H](CO)NC(=O)[C@H](CC(C)C)NC1=O)C(C)C)C(C)C [S2A10] (Ac-VLESFKVS[S5]LSALEE[R8]TKKLNTQ-NH2; staple 9-16; N-terminus and C-terminus assumed)
helical (helicity by CD spectroscopy) [1]: 97% | Helicity at 90° C. [1]: 48% | remaining at 24 h, 500 μg/ml (pepsin): 12.2% | decrease in % area coverage by atherosclerotic plaques (aortic atherosclerosis): > 2 fold | resistance to proteolysis by chymotrypsin (in words) (chymotrypsin; [6]): less sensitive to chymotrypsin than S1A10 | remaining at 24 h, 500 μg/ml (chymotrypsin; [6]): 3.8%

Ac-VLESFKVSFLSALEEYTKKLNTQ-NH2 [A10, reference compound]
cholesterol efflux (in words) (SR-BI receptor): ineffective | cholesterol efflux (in words) (ABCG1 transporter): ineffective | helical (helicity by CD spectroscopy) [1]: 17% | Helicity at 90° C. [1]: 11% | remaining at 0.5 h, 500 μg/ml (pepsin; isolated enzyme pepsin, pH 2): < 5% | DMPC vesicle solubilization (turbidity, in words) [2]: some initial solubilization of the DMPC vesicles, but at later time points, the turbidity of the solution increased | cholesterol efflux by the ABCA1 transporter (in words) (ABCA1 transporter): ineffective | remaining at 0.5 h, 500 μg/ml (chymotrypsin; isolated enzyme chymotrypsin, pH 7): < 5%

apoA-I: the main protein in High Density Lipoprotein (HDL)
helical ([3]; associated with lipids): over 80% | helical ([3]; lipid-free state): about 20%

myrstic acid GGGDWLKAFYDKVAEKLKEAFPDWAKAAYDKAAEKAKEAA (Myristoyl-GGGDWLKAFYDKVAEKLKEAFPDWAKAAYDKAAEKAKEAA) [acyl-5A]
increase in serum total cholesterol [4]: approximately 20% | increase in serum free cholesterol ([4]; found primarily on HDL): > 2 fold | helical (helicity by CD spectroscopy) [1]: 36.7% | peptides per complex (oligomer) [5]: approximately 10 peptides per complex
